Experimental findings from patent publication US20160244437A1, “SUBSTITUTED PHENYLALANINE DERIVATIVES” (BAYER PHARMA AKTIENGESELLSCHAFT, priority 2013, published 2016) are described below.

Molecules are shown by their SMILES. Counter-ions that a name gives are not always drawn.

The target of experiment [1] is T1, human factor XIa (Homo sapiens, UniProt P03951).
T1 construct: purchased Kordia
As to the kind of experiment: Measurement of FXIa inhibition (fluorogenic peptide substrate Boc-Glu(OBzl)-Ala-Arg-AMC). Format: biochemical. The settings on record: factor XIa from Kordia 0.45 nM, 15 min pre-incubation, 30 min at 22° C., fluorescence. As for the experimental part:
The factor XIa inhibition of the substances according to the invention is determined using a biochemical test system which utilizes the reaction of a peptidic factor XIa substrate to determine the enzymatic activity of human factor XIa. Here, factor XIa cleaves from the peptic factor XIa substrate the C-terminal aminomethylcoumarin (AMC), the fluorescence of which is measured. The determinations are carried out in microtitre plates.
Test substances are dissolved in dimethyl sulphoxide and serially diluted in dimethyl sulphoxide (3000 μM to 0.0078 μM; resulting final concentrations in the test: 50 μM to 0.00013 μM). In each case 1 μl of the diluted substance solutions is placed into the wells of white microtitre plates from Greiner (384 wells). Subsequently, the following are added successively: 20 μl of assay buffer (50 mmol/l Tris buffer pH 7.4; 100 mmol/l sodium chloride; 5 mmol/l calcium chloride; 0.1% bovine serum albumin) and 20 μl of factor XIa from Kordia (0.45 nM in assay buffer). After 15 min of incubation, the enzyme reaction is started by addition of 20 μl of the factor XIa substrate Boc-Glu(OBzl)-Ala-Arg-AMC dissolved in assay buffer (10 μM in assay buffer) from Bachem, the mixture is incubated at room temperature (22° C.) for 30 min and fluorescence is then measured (excitation: 360 nm, emission: 460 nm). The measured emissions of the test batches with test substance are compared to those of control batches without test substance (only dimethyl sulphoxide instead of test substance in dimethyl sulphoxide), and IC50 values are calculated from the concentration/activity relationships.

In experiment [2] the test system is human and animal plasma. The experiment can be described thus: Determination of anticoagulatory activity: activated partial thromboplastin time (aPTT) in plasma. The settings on record: concentration of test substance which brings about a 1.5-fold extension of the aPTT; plasma in vitro, C.K. Prest kit. On the procedure:
The anticoagulatory activity of the test substances is determined in vitro in human and animal plasma (for example mouse, rat, rabbit, pig and dog plasma). To this end, blood is drawn off in a mixing ratio of sodium citrate/blood of 1:9 using a 0.11 molar sodium citrate solution as receiver. Immediately after the blood has been drawn off, it is mixed thoroughly and centrifuged at about 4000 g for 15 minutes. The supernatant is pipetted off.
The activated partial thromboplastin time (aPTT) is determined in the presence of varying concentrations of test substance or the corresponding solvent using a commercial test kit (C.K. Prest from Diagnostica Stago). The test compounds are incubated with the plasma and the PTT reagent (cephalin, kaolin) at 37° C. for 3 minutes. Coagulation is then started by addition of a 25 mM aqueous calcium chloride solution, and the time when coagulation occurs is determined. The concentration of test substance which brings about a 1.5-fold extension of the aPTT is determined.

T1 sequence (P03951 388-625 limits assumed): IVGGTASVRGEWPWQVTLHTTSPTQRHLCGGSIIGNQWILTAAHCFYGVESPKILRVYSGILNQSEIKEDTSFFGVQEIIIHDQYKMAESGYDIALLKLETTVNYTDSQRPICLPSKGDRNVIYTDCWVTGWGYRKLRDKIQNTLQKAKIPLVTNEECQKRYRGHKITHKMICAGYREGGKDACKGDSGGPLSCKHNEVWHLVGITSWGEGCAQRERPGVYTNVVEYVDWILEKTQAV
T1 sequence (P03951 19-387 partner limits assumed): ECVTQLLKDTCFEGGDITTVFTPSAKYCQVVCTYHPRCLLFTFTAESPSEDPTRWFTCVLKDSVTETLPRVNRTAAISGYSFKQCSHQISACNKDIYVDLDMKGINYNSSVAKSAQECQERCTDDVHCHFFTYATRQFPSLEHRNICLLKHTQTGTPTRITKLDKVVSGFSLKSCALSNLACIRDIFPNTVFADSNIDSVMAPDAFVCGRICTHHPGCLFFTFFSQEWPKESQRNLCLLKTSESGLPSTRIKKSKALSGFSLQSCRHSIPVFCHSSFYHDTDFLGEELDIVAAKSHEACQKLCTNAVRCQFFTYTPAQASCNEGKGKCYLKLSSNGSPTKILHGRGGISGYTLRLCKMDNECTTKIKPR

In experiment [1], `Cc1ccc(S(=O)(=O)NCc2ccccc2)cc1-c1cccc(C[C@H](NC(=O)[C@H]2CC[C@H](CN)CC2)C(=O)Nc2ccc(-c3n[nH]c(=O)[nH]3)cc2)c1` [Example 13, trans-4-(Aminomethyl)-N-[(2S)-3-[5′-(benzylsulphamoyl)-2′-methylbiphenyl-3-yl]-1-oxo-1-{[4-(5-oxo-4,5-dihydro-1H-1,2,4-triazol-3-yl)phenyl]amino}propan-2-yl]cyclohexanecarboxamide hydrochloride] yielded a concentration for half-maximal inhibition (IC50) of 9.2 nM. The molecule also showed an aPTT in experiment [2] of 0.47 µmol/L.
In the case of `Cc1ccc(C(=O)NC2CCNCC2)cc1-c1cccc(C[C@H](NC(=O)[C@H]2CC[C@H](CN)CC2)C(=O)Nc2ccc(-c3nnn[nH]3)cc2)c1` [Example 14, 3′-[(2S)-2-({[trans-4-(Aminomethyl)cyclohexyl]carbonyl}amino)-3-oxo-3-{[4-(1H-tetrazol-5-yl)phenyl]amino}propyl]-6-methyl-N-(piperidin-4-yl)biphenyl-3-carboxamide hydrochloride], in experiment [1], the 50% inhibitory concentration (IC50) turned out to be 4.8 nM. In experiment [2], the aPTT was found to be 0.15 µmol/L.
In the same order, the values of `Cc1ccc(C(=O)NC2C3CNCC32)cc1-c1cccc(C[C@H](NC(=O)C2CCC(CN)CC2)C(=O)Nc2ccc(-c3nnn[nH]3)cc2)c1` (stereo partly drawn) [Example 16, 3′-[(2S)-2-({[trans-4-(Aminomethyl)cyclohexyl]carbonyl}amino)-3-oxo-3-{[4-(1H-tetrazol-5-yl)phenyl]amino}propyl]-N-(3-azabicyclo[3.1.0]hex-6-yl)-6-methylbiphenyl-3-carboxamide hydrochloride] are 5.5 nM and 0.25 µmol/L.
Molecule `Cc1ccc(C[C@H](NC(=O)[C@H]2CC[C@H](CN)CC2)C(=O)Nc2ccc(-c3nnn[nH]3)cc2)cc1-c1cccc(C(=O)N2CCOCC2)c1` [Example 17, trans-4-(Aminomethyl)-N-[(2S)-3-[6-methyl-3′-(morpholin-4-ylcarbonyl)biphenyl-3-yl]-1-oxo-1-{[4-(1H-tetrazol-5-yl)phenyl]amino}propan-2-yl]cyclohexanecarboxamide hydrochloride] yielded an IC50 in experiment [1] of 4.1 nM. Moreover, in experiment [2], the aPTT was determined as 0.19 µmol/L.
`COCCOCCOCCNC(=O)c1cccc(-c2cc(C[C@H](NC(=O)[C@H]3CC[C@H](CN)CC3)C(=O)Nc3ccc(-c4nnn[nH]4)cc3)ccc2C)c1` [Example 18, 5′-[(2S)-2-({[trans-4-(Aminomethyl)cyclohexyl]carbonyl}amino)-3-oxo-3-{[4-(1H-tetrazol-5-yl)phenyl]amino}propyl]-N-{2-[2-(2-methoxyethoxy)ethoxy]ethyl}-2′-methylbiphenyl-3-carboxamide hydrochloride]: the half-inhibitory concentration (IC50) in experiment [1] came to 5.7 nM. The same molecule came in with an aPTT in experiment [2] of 0.4 µmol/L.
In the same order, the values of `Cc1ccc(C[C@H](NC(=O)[C@H]2CC[C@H](CN)CC2)C(=O)Nc2ccc(-c3nnn[nH]3)cc2)cc1-c1cccc(C(=O)NC2CCN(C(C)C)CC2)c1` [Example 19, 5′-[(2S)-2-({[trans-4-(Aminomethyl)cyclohexyl]carbonyl}amino)-3-oxo-3-{[4-(1H-tetrazol-5-yl)phenyl]amino}propyl]-2′-methyl-N-[1-(propan-2-yl)piperidin-4-yl]biphenyl-3-carboxamide hydrochloride] are 6 nM and 0.14 µmol/L.
In the same order, the values of `COCCOCCOCCNC(=O)c1ccc(C)c(-c2cccc(C[C@H](NC(=O)[C@H]3CC[C@H](CN)CC3)C(=O)Nc3ccc(-c4nnn[nH]4)cc3)c2)c1` [Example 20, 3′-[(2S)-2-({[trans-4-(Aminomethyl)cyclohexyl]carbonyl}amino)-3-oxo-3-{[4-(1H-tetrazol-5-yl)phenyl]amino}propyl]-N-{2-[2-(2-methoxyethoxy)ethoxy]ethyl}-6-methylbiphenyl-3-carboxamide hydrochloride] are 1.8 nM and 0.24 µmol/L.
The molecule `Cc1ccc(C(=O)NCCOCCOCCO)cc1-c1cccc(C[C@H](NC(=O)[C@H]2CC[C@H](CN)CC2)C(=O)Nc2ccc(-c3nnn[nH]3)cc2)c1` [Example 21, 3′-[(2S)-2-({[trans-4-(Aminomethyl)cyclohexyl]carbonyl}amino)-3-oxo-3-{[4-(1H-tetrazol-5-yl)phenyl]amino}propyl]-N-{2-[2-(2-hydroxyethoxy)ethoxy]ethyl}-6-methylbiphenyl-3-carboxamide hydrochloride] yielded an IC50 in experiment [1] of 2.3 nM. The same molecule showed an aPTT in experiment [2] of 0.19 µmol/L.
In the same order, the values of `COCCOCCOCCNC(=O)c1ccc(-c2cccc(C[C@H](NC(=O)[C@H]3CC[C@H](CN)CC3)C(=O)Nc3ccc(-c4nnn[nH]4)cc3)c2)c(C)c1` [Example 22, 3′-[(2S)-2-({[trans-4-(Aminomethyl)cyclohexyl]carbonyl}amino)-3-oxo-3-{[4-(1H-tetrazol-5-yl)phenyl]amino}propyl]-N-{2-[2-(2-methoxyethoxy)ethoxy]ethyl}-2-methylbiphenyl-4-carboxamide hydrochloride] are 2.4 nM and 0.34 µmol/L.
In the same order, the values of `CN1CCN(C(=O)c2cccc(-c3cccc(C[C@H](NC(=O)[C@H]4CC[C@H](CN)CC4)C(=O)Nc4ccc(-c5nnc(Cl)[nH]5)cc4)c3)c2)CC1` [Example 24, trans-4-(Aminomethyl)-N-[(2S)-1-{[4-(3-chloro-4H-1,2,4-triazol-5-yl)phenyl]amino}-3-{3′-[(4-methylpiperazin-1-yl)carbonyl]biphenyl-3-yl}-1-oxopropan-2-yl]cyclohexanecarboxamide hydrochloride] are 4.3 nM and 0.15 µmol/L.
In experiment [1], `CN1CCN(C(=O)c2ccc(-c3cccc(C[C@H](NC(=O)[C@H]4CC[C@H](CN)CC4)C(=O)Nc4ccc(-c5nnc(Cl)[nH]5)cc4)c3)cc2)CC1` [Example 27, trans-4-(Aminomethyl)-N-[(2S)-1-{[4-(3-chloro-4H-1,2,4-triazol-5-yl)phenyl]amino}-3-{4′-[(4-methylpiperazin-1-yl)carbonyl]biphenyl-3-yl}-1-oxopropan-2-yl]cyclohexanecarboxamide hydrochloride] gave a half-inhibitory concentration (IC50) of 4.7 nM. The same molecule gave an aPTT in experiment [2] of 0.3 µmol/L.
In the same order, the values of `NC[C@H]1CC[C@H](C(=O)N[C@@H](Cc2cccc(-c3cccc(C(=O)NCCN4CCOCC4)c3)c2)C(=O)Nc2ccc(-c3nnn[nH]3)cc2)CC1` [Example 29, 3′-[(2S)-2-({[trans-4-(Aminomethyl)cyclohexyl]carbonyl}amino)-3-oxo-3-{[4-(1H-tetrazol-5-yl)phenyl]amino}propyl]-N-[2-(morpholin-4-yl)ethyl]biphenyl-3-carboxamide hydrochloride] are 5.5 nM and 0.37 µmol/L.
In turn, `CC(C)N1CCC(NC(=O)c2cccc(-c3cccc(C[C@H](NC(=O)[C@H]4CC[C@H](CN)CC4)C(=O)Nc4ccc(-c5nnc(Cl)[nH]5)cc4)c3)c2)CC1` [Example 30, 3′-[(2S)-2-({[trans-4-(Aminomethyl)cyclohexyl]carbonyl}amino)-3-{[4-(3-chloro-4H-1,2,4-triazol-5-yl)phenyl]amino}-3-oxopropyl]-N-[1-(propan-2-yl)piperidin-4-yl]biphenyl-3-carboxamide hydrochloride] yielded a half-maximal inhibitory concentration (IC50) in experiment [1] of 5.8 nM. This molecule yielded an aPTT in experiment [2] of 0.34 µmol/L.
As to `CN1CCN(C(=O)c2cccc(-c3cccc(C[C@H](NC(=O)[C@H]4CC[C@H](CN)CC4)C(=O)Nc4ccc(-c5nnn[nH]5)cc4)c3)c2)CC1` [Example 31, trans-4-(Aminomethyl)-N-[(2S)-3-{3′-[(4-methylpiperazin-1-yl)carbonyl]biphenyl-3-yl}-1-oxo-1-{[4-(1H-tetrazol-5-yl)phenyl]amino}propan-2-yl]cyclohexanecarboxamide hydrochloride], the 50% inhibitory concentration (IC50) in experiment [1] stood at 7 nM. In experiment [2], the aPTT is 0.36 µmol/L.
In the same order, the values of `CC(C)N1CCC(NC(=O)c2cccc(-c3cccc(C[C@H](NC(=O)[C@H]4CC[C@H](CN)CC4)C(=O)Nc4ccc(-c5nnn[nH]5)cc4)c3)c2)CC1` [Example 32, 3′-[(2S)-2-({[trans-4-(Aminomethyl)cyclohexyl]carbonyl}amino)-3-oxo-3-{[4-(1H-tetrazol-5-yl)phenyl]amino}propyl]-N-[1-(propan-2-yl)piperidin-4-yl]biphenyl-3-carboxamide hydrochloride] are 6.8 nM and 0.18 µmol/L.
